US10392391B2 (Vertex Pharmaceuticals Incorporated, priority 2012, dated 2019)

Each compound was assayed against ATR kinase (full-length ATR) (Homo sapiens (Human), UniProt Q13535) (assay: ATR inhibition assay (radioactive-phosphate incorporation)). Conditions: not given.
Format: biochemical
Procedure, shortened: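 Ki(app) was fitted by non-linear regression to background-corrected initial rates. Full-length ATR (5 nM) phosphorylated 800 μM peptide using 10 μM [γ-33P]ATP at 25° C in Tris/HCl pH 7.5 buffer with MgCl2, DTT and 7% DMSO. After 10-minute compound pre-incubation and 24-hour reaction, phosphocellulose filters were scintillation counted.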

Sequence of ATR kinase (full-length ATR) (Q13535 whole entry): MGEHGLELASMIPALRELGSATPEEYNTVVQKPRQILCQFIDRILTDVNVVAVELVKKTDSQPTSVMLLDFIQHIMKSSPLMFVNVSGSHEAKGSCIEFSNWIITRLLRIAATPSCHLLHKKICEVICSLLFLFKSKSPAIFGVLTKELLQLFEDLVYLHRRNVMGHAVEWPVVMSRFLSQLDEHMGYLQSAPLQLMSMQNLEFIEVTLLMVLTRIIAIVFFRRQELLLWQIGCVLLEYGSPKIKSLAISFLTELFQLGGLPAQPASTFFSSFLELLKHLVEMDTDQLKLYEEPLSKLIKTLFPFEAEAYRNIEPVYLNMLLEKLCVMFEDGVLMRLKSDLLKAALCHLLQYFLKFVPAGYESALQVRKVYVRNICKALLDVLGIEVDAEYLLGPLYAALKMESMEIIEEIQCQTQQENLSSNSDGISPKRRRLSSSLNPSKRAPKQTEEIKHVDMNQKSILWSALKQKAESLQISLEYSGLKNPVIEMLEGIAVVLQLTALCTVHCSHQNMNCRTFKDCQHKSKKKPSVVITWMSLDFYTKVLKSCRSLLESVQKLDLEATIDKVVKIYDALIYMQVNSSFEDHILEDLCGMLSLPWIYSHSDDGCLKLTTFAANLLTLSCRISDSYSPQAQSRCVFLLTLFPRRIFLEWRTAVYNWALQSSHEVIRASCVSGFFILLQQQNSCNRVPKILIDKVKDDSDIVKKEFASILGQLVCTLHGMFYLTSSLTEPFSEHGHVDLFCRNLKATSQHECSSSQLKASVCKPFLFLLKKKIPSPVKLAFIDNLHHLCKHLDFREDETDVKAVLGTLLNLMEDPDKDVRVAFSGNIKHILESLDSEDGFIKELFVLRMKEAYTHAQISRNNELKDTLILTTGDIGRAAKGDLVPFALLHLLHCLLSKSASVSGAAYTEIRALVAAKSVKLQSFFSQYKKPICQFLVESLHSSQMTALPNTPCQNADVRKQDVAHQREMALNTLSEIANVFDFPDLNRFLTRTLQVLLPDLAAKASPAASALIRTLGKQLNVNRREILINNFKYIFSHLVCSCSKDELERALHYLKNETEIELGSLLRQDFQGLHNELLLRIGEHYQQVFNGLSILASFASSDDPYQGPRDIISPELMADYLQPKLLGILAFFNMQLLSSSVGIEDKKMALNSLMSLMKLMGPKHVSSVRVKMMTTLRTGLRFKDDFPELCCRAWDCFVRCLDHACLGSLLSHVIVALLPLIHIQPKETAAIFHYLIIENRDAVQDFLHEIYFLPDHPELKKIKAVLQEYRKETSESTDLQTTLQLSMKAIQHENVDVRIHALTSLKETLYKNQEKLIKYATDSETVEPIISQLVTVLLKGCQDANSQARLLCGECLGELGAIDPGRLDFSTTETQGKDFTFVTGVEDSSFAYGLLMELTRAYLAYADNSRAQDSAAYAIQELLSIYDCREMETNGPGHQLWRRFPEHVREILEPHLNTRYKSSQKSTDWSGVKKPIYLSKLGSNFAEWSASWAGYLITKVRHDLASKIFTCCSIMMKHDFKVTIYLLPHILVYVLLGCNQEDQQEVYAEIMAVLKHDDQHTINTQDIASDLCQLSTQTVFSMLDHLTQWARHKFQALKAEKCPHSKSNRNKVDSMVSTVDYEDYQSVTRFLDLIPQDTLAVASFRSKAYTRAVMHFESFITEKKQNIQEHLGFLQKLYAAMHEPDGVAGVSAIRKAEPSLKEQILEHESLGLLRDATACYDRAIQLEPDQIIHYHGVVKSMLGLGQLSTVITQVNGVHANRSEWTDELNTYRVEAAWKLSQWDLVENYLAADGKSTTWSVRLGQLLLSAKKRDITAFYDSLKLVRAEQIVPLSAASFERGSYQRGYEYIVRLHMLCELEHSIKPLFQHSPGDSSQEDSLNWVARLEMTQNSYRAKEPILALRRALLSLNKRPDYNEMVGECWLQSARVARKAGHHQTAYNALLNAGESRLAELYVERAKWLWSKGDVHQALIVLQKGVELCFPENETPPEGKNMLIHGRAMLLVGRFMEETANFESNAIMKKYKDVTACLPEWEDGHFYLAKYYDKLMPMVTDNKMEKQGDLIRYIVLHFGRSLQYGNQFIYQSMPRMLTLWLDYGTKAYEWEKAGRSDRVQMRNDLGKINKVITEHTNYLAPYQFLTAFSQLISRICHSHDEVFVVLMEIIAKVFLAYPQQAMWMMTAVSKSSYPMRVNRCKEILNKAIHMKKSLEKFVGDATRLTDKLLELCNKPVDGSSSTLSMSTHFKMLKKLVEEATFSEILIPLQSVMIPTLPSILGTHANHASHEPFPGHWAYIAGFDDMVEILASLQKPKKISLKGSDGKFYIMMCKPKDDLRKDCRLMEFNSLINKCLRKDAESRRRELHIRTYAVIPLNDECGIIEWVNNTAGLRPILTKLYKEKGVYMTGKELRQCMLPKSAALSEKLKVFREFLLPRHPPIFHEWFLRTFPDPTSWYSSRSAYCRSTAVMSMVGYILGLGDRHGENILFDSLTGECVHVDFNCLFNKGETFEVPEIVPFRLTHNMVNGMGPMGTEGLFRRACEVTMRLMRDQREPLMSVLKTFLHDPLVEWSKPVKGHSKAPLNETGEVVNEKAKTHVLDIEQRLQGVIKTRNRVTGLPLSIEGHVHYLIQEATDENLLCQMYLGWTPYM

Ki | SMILES
1 to 5 µM | Nc1nn2cc(F)cnc2c1C(=O)Nc1cncc(F)c1N1CCC(C(=O)N2CCN3CCC2C3)CC1 (stereo not shown) [I-G-46, N-(4-(4-(1,4-diazabicyclo[3.2.1]octane-4-carbonyl)piperidin-1-yl)-5-fluoropyridin-3-yl)-2-amino-6-fluoropyrazolo[1,5-a]pyrimidine-3-carboxamide]

Same assay, conditions: Ki(app), 5 nM full-length ATR, 10 μM ATP, 25° C.

SMILES | Ki
CN1C2CCC1CN(C(=O)C1CCN(c3c(F)cncc3NC(=O)c3c(N)nn4cc(F)cnc34)CC1)C2 [I-G-52, 2-amino-6-fluoro-N-(5-fluoro-4-(4-(8-methyl-3,8-diazabicyclo[3.2.1]octane-3-carbonyl)piperidin-1-yl)pyridin-3-yl)pyrazolo[1,5-a]pyrimidine-3-carboxamide] | 0.01 to 1 µM
Nc1nn2cc(F)cnc2c1C(=O)Nc1cncc(F)c1N1CCC(C(=O)N2CCNC3CC32)CC1 (stereo not shown) [I-G-62, N-(4-(4-(2,5-diazabicyclo[4.1.0]heptane-2-carbonyl)piperidin-1-yl)-5-fluoropyridin-3-yl)-2-amino-6-fluoropyrazolo[1,5-a]pyrimidine-3-carboxamide] | 0.01 to 1 µM
CC1(O)CN(C(=O)C2CCN(c3c(F)cncc3NC(=O)c3c(N)nn4cc(F)cnc34)CC2)C1 [I-G-63, 2-amino-6-fluoro-N-(5-fluoro-4-(4-(3-hydroxy-3-methylazetidine-1-carbonyl)piperidin-1-yl)pyridin-3-yl)pyrazolo[1,5-a]pyrimidine-3-carboxamide] | 0.01 to 1 µM
Nc1nn2cc(F)cnc2c1C(=O)Nc1cncc(F)c1N1CCC(C(=O)N2CCC(N3CCCCC3)C2)CC1 (stereo not shown) [I-G-64, 2-amino-6-fluoro-N-(5-fluoro-4-(4-(3-(piperidin-1-yl)pyrrolidine-1-carbonyl)piperidin-1-yl)pyridin-3-yl)pyrazolo[1,5-a]pyrimidine-3-carboxamide] | 0.01 to 1 µM
CN1CCN(C(=O)C2CCN(c3c(F)cncc3NC(=O)c3c(N)nn4cc(F)cnc34)CC2)C2CC21 (stereo not shown) [I-G-65, 2-amino-6-fluoro-N-(5-fluoro-4-(4-(5-methyl-2,5-diazabicyclo[4.1.0]heptane-2-carbonyl)piperidin-1-yl)pyridin-3-yl)pyrazolo[1,5-a]pyrimidine-3-carboxamide] | 0.01 to 1 µM
Nc1nn2cc(F)cnc2c1C(=O)Nc1cncc(Cl)c1N1CCC(C(=O)N2CCN3CCC2CC3)CC1 [I-G-66, N-(4-(4-(1,4-diazabicyclo[3.2.2]nonane-4-carbonyl)piperidin-1-yl)-5-chloropyridin-3-yl)-2-amino-6-fluoropyrazolo[1,5-a]pyrimidine-3-carboxamide] | 0.01 to 1 µM
Nc1nn2cc(F)cnc2c1C(=O)Nc1cncc(Cl)c1N1CCC(C(=O)N2CCN3CCC2C3)CC1 (stereo not shown) [I-G-69, N-(4-(4-(1,4-diazabicyclo[3.2.1]octane-4-carbonyl)piperidin-1-yl)-5-chloropyridin-3-yl)-2-amino-6-fluoropyrazolo[1,5-a]pyrimidine-3-carboxamide] | 0.01 to 1 µM
Nc1nn2cc(F)cnc2c1C(=O)Nc1cncc(F)c1N1CCC(C(=O)N2CCN3CC[C@H]2C3)CC1 [I-G-70, N-(4-(4-((5S)-1,4-diazabicyclo[3.2.1]octane-4-carbonyl)piperidin-1-yl)-5-fluoropyridin-3-yl)-2-amino-6-fluoropyrazolo[1,5-a]pyrimidine-3-carboxamide] | 0.01 to 1 µM
Nc1nn2cc(F)cnc2c1C(=O)Nc1cncc(F)c1N1CCC(C(=O)N2CCN3CC[C@@H]2C3)CC1 [I-G-71, N-(4-(4-((5R)-1,4-diazabicyclo[3.2.1]octane-4-carbonyl)piperidin-1-yl)-5-fluoropyridin-3-yl)-2-amino-6-fluoropyrazolo[1,5-a]pyrimidine-3-carboxamide] | 0.01 to 1 µM
Nc1nn2cc(F)cnc2c1C(=O)Nc1cncc(F)c1N1CCC(C(=O)N2CC3(COC3)C2)CC1 [I-G-72, N-(4-(4-(2-oxa-6-azaspiro[3.3]heptane-6-carbonyl)piperidin-1-yl)-5-fluoropyridin-3-yl)-2-amino-6-fluoropyrazolo[1,5-a]pyrimidine-3-carboxamide] | 0.01 to 1 µM
Nc1nn2cc(F)cnc2c1C(=O)Nc1cncc(F)c1N1CCC(C(=O)N2CC(F)(F)C2)CC1 [I-G-73, 2-amino-N-(4-(4-(3,3-difluoroazetidine-1-carbonyl)piperidin-1-yl)-5-fluoropyridin-3-yl)-6-fluoropyrazolo[1,5-a]pyrimidine-3-carboxamide] | 0.01 to 1 µM
Nc1nn2cc(F)cnc2c1C(=O)Nc1cncc(F)c1N1CCC(C(=O)N2CC(F)C2)CC1 [I-G-74, 2-amino-6-fluoro-N-(5-fluoro-4-(4-(3-fluoroazetidine-1-carbonyl)piperidin-1-yl)pyridin-3-yl)pyrazolo[1,5-a]pyrimidine-3-carboxamide] | 0.01 to 1 µM
COC1(C)CN(C(=O)C2CCN(c3c(F)cncc3NC(=O)c3c(N)nn4cc(F)cnc34)CC2)C1 [I-G-75, 2-amino-6-fluoro-N-(5-fluoro-4-(4-(3-methoxy-3-methylazetidine-1-carbonyl)piperidin-1-yl)pyridin-3-yl)pyrazolo[1,5-a]pyrimidine-3-carboxamide] | 0.01 to 1 µM

Further lines, results first:

Ki | SMILES
0.01 to 1 µM | C[C@H]1CN(C(=O)C2CCN(c3c(F)cncc3NC(=O)c3c(N)nn4cc(F)cnc34)CC2)CCN1C [I-G-47, (S)-2-amino-N-(4-(4-(3,4-dimethylpiperazine-1-carbonyl)piperidin-1-yl)-5-fluoropyridin-3-yl)-6-fluoropyrazolo[1,5-a]pyrimidine-3-carboxamide]
0.01 to 1 µM | Nc1nn2cc(F)cnc2c1C(=O)Nc1cncc(Cl)c1N1CCC(C(=O)N2CCNCC2)CC1 [I-G-48, 2-amino-N-(5-chloro-4-(4-(piperazine-1-carbonyl)piperidin-1-yl)pyridin-3-yl)-6-fluoropyrazolo[1,5-a]pyrimidine-3-carboxamide]
0.01 to 1 µM | Nc1nn2cc(F)cnc2c1C(=O)Nc1cncc(F)c1N1CCC(C(=O)N2CC(N3CCC3)C2)CC1 [I-G-49, N-(4-(4-([1,3′-biazetidine]-1′-carbonyl)piperidin-1-yl)-5-fluoropyridin-3-yl)-2-amino-6-fluoropyrazolo[1,5-a]pyrimidine-3-carboxamide]
0.01 to 1 µM | C[C@@H]1CN(C(=O)C2CCN(c3c(F)cncc3NC(=O)c3c(N)nn4cc(F)cnc34)CC2)CCN1C [I-G-50, (R)-2-amino-N-(4-(4-(3,4-dimethylpiperazine-1-carbonyl)piperidin-1-yl)-5-fluoropyridin-3-yl)-6-fluoropyrazolo[1,5-a]pyrimidine-3-carboxamide]
0.01 to 1 µM | Nc1nn2cc(F)cnc2c1C(=O)Nc1cncc(F)c1N1CCC(C(=O)N2CC3CNCC3C2)CC1 (stereo not shown) [I-G-51, 2-amino-6-fluoro-N-(5-fluoro-4-(4-(octahydropyrrolo[3,4-c]pyrrole-2-carbonyl)piperidin-1-yl)pyridin-3-yl)pyrazolo[1,5-a]pyrimidine-3-carboxamide]
0.01 to 1 µM | CN1CC2CC1CN2C(=O)C1CCN(c2c(F)cncc2NC(=O)c2c(N)nn3cc(F)cnc23)CC1 (stereo not shown) [I-G-53, 2-amino-6-fluoro-N-(5-fluoro-4-(4-(5-methyl-2,5-diazabicyclo[2.2.1]heptane-2-carbonyl)piperidin-1-yl)pyridin-3-yl)pyrazolo[1,5-a]pyrimidine-3-carboxamide]
0.01 to 1 µM | CN1CCN(C(=O)C2(C)CCN(c3c(F)cncc3NC(=O)c3c(N)nn4cc(F)cnc34)CC2)CC1 [I-G-54, 2-amino-6-fluoro-N-(5-fluoro-4-(4-methyl-4-(4-methylpiperazine-1-carbonyl)piperidin-1-yl)pyridin-3-yl)pyrazolo[1,5-a]pyrimidine-3-carboxamide]
0.01 to 1 µM | Cc1cncc(NC(=O)c2c(N)nn3cc(F)cnc23)c1N1CCC(C(=O)N2CCN(C)CC2)CC1 [I-G-55, 2-amino-6-fluoro-N-(5-methyl-4-(4-(4-methylpiperazine-1-carbonyl)piperidin-1-yl)pyridin-3-yl)pyrazolo[1,5-a]pyrimidine-3-carboxamide]
0.01 to 1 µM | Cc1cncc(NC(=O)c2c(N)nn3cc(F)cnc23)c1N1CCC(C(=O)N2CCNCC2)CC1 [I-G-56, 2-amino-6-fluoro-N-(5-methyl-4-(4-(piperazine-1-carbonyl)piperidin-1-yl)pyridin-3-yl)pyrazolo[1,5-a]pyrimidine-3-carboxamide]
0.01 to 1 µM | Nc1nn2cc(F)cnc2c1C(=O)Nc1cncc(F)c1N1CCC(C(=O)N2CC(N3CCCCC3)C2)CC1 [I-G-57, 2-amino-6-fluoro-N-(5-fluoro-4-(4-(3-(piperidin-1-yl)azetidine-1-carbonyl)piperidin-1-yl)pyridin-3-yl)pyrazolo[1,5-a]pyrimidine-3-carboxamide]
0.01 to 1 µM | Nc1nn2cc(F)cnc2c1C(=O)Nc1cncc(F)c1N1CCC(C(=O)N2CC[C@H](N3CCCC3)C2)CC1 [I-G-58, (S)—N-(4-(4-([1,3′-bipyrrolidine]-1′-carbonyl)piperidin-1-yl)-5-fluoropyridin-3-yl)-2-amino-6-fluoropyrazolo[1,5-a]pyrimidine-3-carboxamide]
0.01 to 1 µM | Nc1nn2cc(F)cnc2c1C(=O)Nc1cncc(F)c1N1CCC(C(=O)N2CCC(N3CCCC3)CC2)CC1 [I-G-59, 2-amino-6-fluoro-N-(5-fluoro-4-(4-(4-(pyrrolidin-1-yl)piperidine-1-carbonyl)piperidin-1-yl)pyridin-3-yl)pyrazolo[1,5-a]pyrimidine-3-carboxamide]
0.01 to 1 µM | Nc1nn2cc(F)cnc2c1C(=O)Nc1cncc(F)c1N1CCC(C(=O)N2CCC(N3CCCCC3)CC2)CC1 [I-G-60, N-(4-(4-([1,4′-bipiperidine]-1′-carbonyl)piperidin-1-yl)-5-fluoropyridin-3-yl)-2-amino-6-fluoropyrazolo[1,5-a]pyrimidine-3-carboxamide]
0.01 to 1 µM | C[C@H]1CN(C(=O)C2CCN(c3c(F)cncc3NC(=O)c3c(N)nn4cc(F)cnc34)CC2)CCN1 [I-G-61, (S)-2-amino-6-fluoro-N-(5-fluoro-4-(4-(3-methylpiperazine-1-carbonyl)piperidin-1-yl)pyridin-3-yl)pyrazolo[1,5-a]pyrimidine-3-carboxamide]
